Measured values as given in US7432392B2, “Ester derivatives and medical use thereof” (Japan Tobacco Inc., priority 2003, dated 2008).

What follows are molecules tested against T1, Microsomal triglyceride transfer protein (MTP) from bovine liver (Bos taurus, UniProt P55156) (assay: Inhibition of interliposomal triglyceride (TG) transfer activity by MTP). Settings: MTP-mediated TG transfer between donor and acceptor liposomes, 37° C., one hour.
T1 construct: the purified MTP was used for the test; from tissue; host or cells: bovine liver
T1 sequence (P55156 12-887): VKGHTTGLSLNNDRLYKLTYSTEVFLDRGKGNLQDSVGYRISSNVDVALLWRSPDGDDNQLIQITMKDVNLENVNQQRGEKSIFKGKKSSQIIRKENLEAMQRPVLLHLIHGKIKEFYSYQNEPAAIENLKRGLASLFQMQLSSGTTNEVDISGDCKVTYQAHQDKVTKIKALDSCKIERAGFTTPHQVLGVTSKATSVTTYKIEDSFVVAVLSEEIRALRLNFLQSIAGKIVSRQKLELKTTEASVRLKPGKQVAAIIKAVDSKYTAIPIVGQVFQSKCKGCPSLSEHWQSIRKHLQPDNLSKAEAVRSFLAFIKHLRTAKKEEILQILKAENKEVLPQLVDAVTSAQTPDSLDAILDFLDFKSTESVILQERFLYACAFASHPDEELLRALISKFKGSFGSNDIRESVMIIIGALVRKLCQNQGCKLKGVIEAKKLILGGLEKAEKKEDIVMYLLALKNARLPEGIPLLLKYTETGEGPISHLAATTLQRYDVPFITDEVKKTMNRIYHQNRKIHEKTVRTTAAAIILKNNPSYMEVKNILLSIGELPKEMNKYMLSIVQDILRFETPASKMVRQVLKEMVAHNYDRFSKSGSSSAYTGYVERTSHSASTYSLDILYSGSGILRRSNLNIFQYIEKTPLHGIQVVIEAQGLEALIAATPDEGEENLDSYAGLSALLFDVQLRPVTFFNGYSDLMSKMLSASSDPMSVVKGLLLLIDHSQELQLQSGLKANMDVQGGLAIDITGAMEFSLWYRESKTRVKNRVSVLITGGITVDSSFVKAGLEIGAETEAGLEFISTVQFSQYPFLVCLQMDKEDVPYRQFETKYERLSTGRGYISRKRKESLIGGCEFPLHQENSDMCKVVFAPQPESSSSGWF
T1 sequence (P05307 21-510 partner): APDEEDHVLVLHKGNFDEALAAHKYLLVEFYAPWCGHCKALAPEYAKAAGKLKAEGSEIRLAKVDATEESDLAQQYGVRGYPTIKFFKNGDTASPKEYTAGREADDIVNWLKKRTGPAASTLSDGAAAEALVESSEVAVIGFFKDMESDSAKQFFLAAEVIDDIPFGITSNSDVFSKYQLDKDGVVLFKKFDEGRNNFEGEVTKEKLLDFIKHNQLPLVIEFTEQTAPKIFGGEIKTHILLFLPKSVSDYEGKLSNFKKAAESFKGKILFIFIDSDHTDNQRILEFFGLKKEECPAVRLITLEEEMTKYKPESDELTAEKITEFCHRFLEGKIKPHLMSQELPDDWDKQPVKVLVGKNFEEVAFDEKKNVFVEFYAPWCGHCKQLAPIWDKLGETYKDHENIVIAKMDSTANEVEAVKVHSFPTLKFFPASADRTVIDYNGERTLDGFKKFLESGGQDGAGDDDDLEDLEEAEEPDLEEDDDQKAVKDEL
Assay type: biochemical
Method: Microsomal triglyceride transfer protein (MTP) from bovine liver was partially purified in such a way described below. A buffer (50 mM Tris, 250 mM sucrose, 1 mM EDTA, 0.02% NaN3 (pH 7.4)) for making a homogenate preparation was added to bovine liver, and the mixture was homogenated under ice-cooling, then centrifuged at 10,000×g (4° C., 30 minutes) The supernatant was adjusted to pH 5.1 with hydrochloric acid, and stirred for 30 minutes. The solution was further centrifuged at 10,000×g (4° C., 30 minutes), and 1 mM Tris buffer was added to the precipitated residue, and the mixture was adjusted to pH 8.6 with sodium hydroxide. After addition of 2.7 M ammonium sulfate solution, the mixture was stirred for 30 minutes, then centrifuged at 10,000×g (4° C., 40 minutes). The resulting supernatant was served as a crude extraction fraction of MTP and stored at −80° C. under freezing. In its practical use, the crude extraction fraction of MTP was purified by column chromatography on diethylaminoethyl (DEAE) Sepharose using FPLC (Fast Performance Liquid Chromatography) system, and the purified MTP was used for the test.
Small unilamellar-vesicle (SUV) liposome (donor, 0.25 mol % triolein, 5 mol % cardiolipin) labeled with ^14C-triolein and non-labeled SUV liposome (acceptor, 0.25 mol % triolein) were prepared. A fixed amount of donor and acceptor, and MTP were mixed with a sample dissolved in DMSO or with DMSO. The mixture was incubated in a 15 mM Tris hydrochloride buffer (pH 7.4) containing 40 mM sodium chloride, 1 mM EDTA (ethylenediaminetetraacetic acid), 0.02% NaN3 and 0.5% bovine serum albumin at 37° C. for one hour. After completion of the incubation, a suspension of DEAE cellulose (50% v/v) in 15 mM Tris hydrochloride buffer (pH 7.4) was added to the above solution, and the mixture was centrifuged to separate the donor and the acceptor. The radioactivity in the acceptor was measured by liquid scintillation counter. The value obtained by subtracting the radioactivity in the blank from the amount of radioactivity in the acceptor of a DMSO group was determined as MTP-mediated TG transfer activity, and it was compared with the value obtained by subtracting the radioactivity in the blank from the radioactivity in a sample group. The blank was prepared by adding 15 mM Tris-HCl buffer (pH 7.4) in place of MTP. Inhibition rate (%) was calculated from the values obtained according to the following equation.
Inhibition rate (%)=100×(1 minus ((radioactivity of sample group minus radioactivity of blank group)/(radioactivity of DMSO group minus radioactivity of blank group))). 50% Inhibition rate (IC50) was determined on the basis of the above equation.

Compound | IC50 [nM]
CCOC(=O)C(CCC(=O)Oc1ccc(NC(=O)c2ccccc2-c2ccc(C(F)(F)F)cc2)c(C(=O)N(C)C)c1)(C(=O)OCC)c1ccccc1 [Example 3, 2-Ethoxycarbonyl-2-phenylpentanedioic acid 5-{3-dimethylcarbamoyl-4-[(4′-trifluoromethylbiphenyl-2-carbonyl)amino]phenyl}ester 1-ethyl ester] | < 10
CCOC(=O)C(COC(=O)Cc1ccc(N(C)C(=O)c2ccccc2-c2ccc(C(F)(F)F)cc2)c(OC(C)=O)c1)(C(=O)OCC)c1ccccc1 [Example 1-8] | < 10
CCOC(=O)C(COC(=O)Oc1c(F)cc(NC(=O)c2cccc(OC)c2-c2ccc(C(F)(F)F)cc2)c(C(=O)N(C)C)c1F)(C(=O)OCC)c1cccs1 [Example 2-36] | < 10
CCOC(=O)C(CC(=O)Oc1ccc(NC(=O)c2ccccc2-c2ccc(C(F)(F)F)cc2)c(C(=O)N(C)C)c1)(C(=O)OCC)c1ccccc1 [Example 3-4] | < 10
CCOC(=O)C(CCC(=O)Oc1c(F)cc(NC(=O)c2ccccc2-c2ccc(C(F)(F)F)cc2)c(C(=O)NC)c1F)(C(=O)OCC)c1ccccc1 [Example 3-10] | < 10
CCOC(=O)C(COC(=O)OCc1ccc(NC(=O)c2ccccc2-c2ccc(C(F)(F)F)cc2)c(C(=O)N(C)C)c1)(C(=O)OCC)c1ccccc1 [Example 2-5] | < 10
CCOC(=O)C(COC(=O)Oc1ccc(NC(=O)c2ccccc2-c2ccc(C(F)(F)F)cc2)c(C(=O)N(C)C)c1)(C(=O)OCC)c1ccccn1 [Example 2-18] | < 10
CCOC(=O)C(COC(=O)Oc1c(F)cc(NC(=O)c2ccccc2-c2ccc(C(F)(F)F)cc2)c(C(=O)N(C)C)c1F)(C(=O)OCC)c1nccs1 [Example 2-44] | 10 to 100
CCNC(=O)C(COCC(=O)OCc1ccc(NC(=O)c2ccccc2-c2ccc(C(F)(F)F)cc2)c(C(=O)N(C)C)c1)(C(=O)NCC)c1ccccc1 [Example 3-24] | < 10
CCOC(=O)C(COC(=O)Oc1ccc(NC(=O)c2ccccc2-c2ccc(C(F)(F)F)cc2)c(C(=O)N(C)C)c1)(C(=O)OCC)c1cccs1 [Example 2-7] | < 10
CCOC(=O)C(COC(=O)Oc1ccc(NC(=O)c2ccccc2-c2ccc(C(F)(F)F)cc2)c(C(=O)N(C)CC)c1)(C(=O)OCC)c1ccccc1 [Example 2-12] | < 10
CCCN(C)C(=O)c1cc(OC(=O)OCC(C(=O)OCC)(C(=O)OCC)c2ccccc2)ccc1NC(=O)c1ccccc1-c1ccc(C(F)(F)F)cc1 [Example 2-13] | < 10
CCOC(=O)C(COC(=O)Oc1c(F)cc(NC(=O)c2ccccc2-c2ccc(C(F)(F)F)cc2)c(C(=O)N2CCOCC2)c1F)(C(=O)OCC)c1cccs1 [Example 2-38] | 10 to 100
CCOC(=O)C(COC(=O)Oc1ccc(NC(=O)c2ccccc2-c2ccc(C(F)(F)F)cc2)c(C(=O)N(C)C)c1Cl)(C(=O)OCC)c1ccccc1 [Example 2-22] | < 10
CCOC(=O)C(COC(=O)Oc1ccc(NC(=O)c2ccc(C(F)(F)F)nc2-c2ccc(C(F)(F)F)cc2)c(C(=O)N(C)C)c1)(C(=O)OCC)c1ccccc1 [Example 2-16] | < 10
CCOC(=O)C(COC(=O)Oc1ccc(NC(=O)c2ccc(C)nc2-c2ccc(C(F)(F)F)cc2)c(C(=O)N(C)C)c1)(C(=O)OCC)c1ccccn1 [Example 2-23] | < 10
CCOC(=O)C(CCC(=O)Oc1c(F)cc(NC(=O)c2ccccc2-c2ccc(C(F)(F)F)cc2)c(C(=O)N(C)C)c1F)(C(=O)OCC)c1ccccc1 [Example 3-9] | < 10
CCOC(=O)C(CCC(=O)Oc1c(F)cc(NC(=O)c2ccc(C)cc2-c2ccc(C(F)(F)F)cc2)c(C(=O)N(C)C)c1F)(C(=O)OCC)c1cccs1 [Example 3-21] | < 10
CCOC(=O)C(COC(=O)Oc1c(F)cc(NC(=O)c2ccccc2-c2ccc(C(F)(F)F)cc2)c(OCC)c1F)(C(=O)OCC)c1cccs1 [Example 2-51] | < 10
CCOC(=O)C(CC(=O)OCc1ccc(NC(=O)c2ccccc2-c2ccc(C(F)(F)F)cc2)c(C(=O)N(C)C)c1)(C(=O)OCC)c1ccccc1 [Example 3-5] | < 10

Further lines, results first:

IC50 [nM] | Compound
10 to 100 | CCOC(=O)C(COC(=O)Oc1c(F)cc(NC(=O)c2ccc(OC)cc2-c2ccc(C(F)(F)F)cc2)c(C(=O)N(C)C)c1F)(C(=O)OCC)c1cccs1 [Example 2-37]
100 to 1000 | CCOC(=O)C(COC(=O)Oc1c(F)cc(NC(=O)c2ccccc2-c2ccc(C(F)(F)F)cc2)c(C(=O)N2CCN(C(C)=O)CC2)c1F)(C(=O)OCC)c1cccs1 [Example 2-46]
< 10 | CCNC(=O)C(COCCC(=O)Oc1c(F)cc(NC(=O)c2ccccc2-c2ccc(C(F)(F)F)cc2)c(C(=O)N(C)C)c1F)(C(=O)NCC)c1ccccc1 [Example 3-16]
< 10 | CCOC(=O)C(COC(=O)Oc1c(F)cc(NC(=O)c2ccccc2-c2ccc(C(F)(F)F)cc2)c(C(=O)N(C)C)c1F)(C(=O)OCC)c1cccs1 [Example 2-26]
< 10 | CCOC(=O)C(COC(=O)Oc1ccc(NC(=O)c2cccnc2-c2ccc(C(F)(F)F)cc2)c(C(=O)N(C)C)c1)(C(=O)OCC)c1ccccc1 [Example 2-25]
< 10 | CCNC(=O)C(COCCC(=O)Oc1ccc(NC(=O)c2ccccc2-c2ccc(C(F)(F)F)cc2)c(C(=O)N(C)C)c1)(C(=O)NCC)c1ccccc1 [Example 3-3, 3-(2,2′-Bisethylcarbamoyl-2-phenylethoxy)propionic acid 3-dimethylcarbamoyl-4-[(4′-trifluoromethylbiphenyl-2-carbonyl)amino]phenyl ester]
< 10 | CCOC(=O)C(CC(=O)OCc1ccc(NC(=O)c2ccccc2-c2ccc(C(F)(F)F)cc2)c(C(=O)N(C)C)c1)(C(=O)OCC)c1ccccn1 [Example 3-23]
10 to 100 | CCOC(=O)C(COC(=O)Oc1c(F)cc(NC(=O)c2cc(C)ccc2-c2ccc(C(F)(F)F)cc2)c(C(=O)N(C)C)c1F)(C(=O)OCC)c1cccs1 [Example 2-35]
< 10 | CCOC(=O)C(COC(=O)Oc1ccc(NC(=O)c2ccc(C)cc2-c2ccc(C(F)(F)F)cc2)c(C(=O)N(C)C)c1)(C(=O)OCC)c1ccccc1 [Example 2-8]
< 10 | CCOC(=O)C(COC(=O)Cc1ccc(NC(=O)c2ccc(C)cc2-c2ccc(C(F)(F)F)cc2)c(OC(=O)CC)c1)(C(=O)OCC)c1ccccc1 [Example 1-6]
< 10 | CCOC(=O)C(COC(=O)Oc1c(F)cc(NC(=O)c2ccccc2-c2ccc(C(F)(F)F)cc2)c(OC(C)C)c1F)(C(=O)OCC)c1cccs1 [Example 2-52]
